This is an account of results in patent publication US20240034731A1, “AZA-QUINAZOLINE COMPOUNDS AND METHODS OF USE” (Iambic Therapeutics, Inc., priority 2022, published 2024).

Molecules are shown by their SMILES.

One assay deals with CDK2/Cyclin E1 (Homo sapiens (Human), UniProt P24941). Kind of assay: CDK2/Cyclin E1 Full length ADP-Glo Kinase Assay. Type of assay: biochemical. To be noted: 20 uM ATP, read-out: CDK2/ CyclinE1 IC50. The gist of the method: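 Full-length human CDK2/cyclin E1 was preincubated 30 min at room temperature with inhibitor, then reacted 90 min with ATP-containing substrate solution. ADP formed was measured by ADP-Glo luminescence; IC50 from 4-parameter fit of fractional velocity versus inhibitor concentration.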

The test system of the next assay is OVCAR-3 cells. Kind of assay: Cell Growth Inhibition, OVCAR-3 (CellTiterGlo, 6 days). Type of assay: cell-based. The note with it: Homo sapiens, 144 h, OVCAR-3, 6-day treatment. The gist of the method:
(§1)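 MCF-7 (ER+ breast adenocarcinoma) or CCNE1-amplified OVCAR-3 cells, 500/well in RPMI with 10% FBS, treated with half-log dilutions typically 10-10,000 nM for 6 days at 37 °C. CellTiterGlo 2.0 luminescence gave % growth inhibition versus control; IC50 by four-parameter variable-slope fit.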

The target in the next assay is CDK1/Cyclin B1 (Homo sapiens (Human), UniProt P06493). Kind of assay: CDK1/Cyclin B1 ADP-Glo Kinase Assay. Type of assay: biochemical. The note with it: ADP-Glo, 80 uM ATP; read-out: CDK1 Cyclin B1 IC50. The method, boiled down:
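Enzyme and inhibitor pre-incubated 30 min at room temperature before ATP/substrate addition; reaction run 90 min at room temperature. ADP formed measured by ADP-Glo luminescence; IC50 from a 4-parameter fit of fractional velocity versus inhibitor concentration.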
For orientation: ADP-Glo first removes unused ATP, then detects ADP through luciferase.

The target in the next assay is CDK6/Cyclin D3 (Homo sapiens (Human), UniProt Q00534). Kind of assay: CDK6/Cyclin D3 ADP-Glo Kinase Assay. The note with it: 100 uM ATP, read-out: CDK6/ CyclinD3 IC50. The format is biochemical. The method, boiled down:
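Enzyme and inhibitor were pre-incubated for 30 min at room temperature before ATP/substrate was added. The kinase reaction ran 90 min at room temperature, and ADP formed was detected by ADP-Glo luminescence. IC50 was fitted with a 4-parameter equation to fractional velocity versus inhibitor concentration.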

The next assay relates to MCF-7 cells. Kind of assay: Cell Growth Inhibition, MCF-7 (CellTiterGlo, 6 days). The format is cell-based. To be noted: Homo sapiens, MCF7, 144 h, MCF-7, 6-day treatment. The gist of the method:
as §1

The next assay concerns the target CDK4/Cyclin D1 (Homo sapiens (Human), UniProt P11802). As to the kind of experiment: CDK4/Cyclin D1 CHEF Assay (AQT0258 peptide). Type of assay: biochemical. The note with it: 200 uM ATP, read-out: CDK4/ CyclinD1 AQT IC50. The gist of the method:
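Sox-labelled peptide AQT0258 phosphorylation read as chelation-enhanced fluorescence (ex 360/em 485 nm) with Mg(II). Enzyme preincubated with inhibitor 30 min at 22°C, substrate added, 3 h at 22°C; IC50 from four-parameter fit of fractional velocity versus inhibitor concentration.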

CDK6/Cyclin D3, sequence (Q00534 whole entry): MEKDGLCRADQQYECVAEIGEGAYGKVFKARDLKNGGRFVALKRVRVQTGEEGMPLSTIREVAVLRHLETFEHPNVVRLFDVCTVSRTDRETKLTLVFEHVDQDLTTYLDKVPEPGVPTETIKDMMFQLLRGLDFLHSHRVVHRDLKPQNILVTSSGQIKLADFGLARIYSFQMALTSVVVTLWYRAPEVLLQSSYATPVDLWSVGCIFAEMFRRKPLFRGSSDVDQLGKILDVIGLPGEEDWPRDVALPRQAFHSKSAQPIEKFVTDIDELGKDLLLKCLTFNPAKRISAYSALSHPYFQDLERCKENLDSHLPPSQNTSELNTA
CDK6/Cyclin D3, sequence (P30281 whole entry partner): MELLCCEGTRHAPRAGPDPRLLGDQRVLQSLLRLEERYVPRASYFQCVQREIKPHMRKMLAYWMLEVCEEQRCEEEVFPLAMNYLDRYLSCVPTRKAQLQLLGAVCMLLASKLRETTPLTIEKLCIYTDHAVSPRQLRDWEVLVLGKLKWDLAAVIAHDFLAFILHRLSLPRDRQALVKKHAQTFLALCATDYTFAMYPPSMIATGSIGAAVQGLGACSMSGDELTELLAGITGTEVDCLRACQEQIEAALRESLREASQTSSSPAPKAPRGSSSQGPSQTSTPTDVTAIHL
CDK1/Cyclin B1, sequence (P06493 whole entry): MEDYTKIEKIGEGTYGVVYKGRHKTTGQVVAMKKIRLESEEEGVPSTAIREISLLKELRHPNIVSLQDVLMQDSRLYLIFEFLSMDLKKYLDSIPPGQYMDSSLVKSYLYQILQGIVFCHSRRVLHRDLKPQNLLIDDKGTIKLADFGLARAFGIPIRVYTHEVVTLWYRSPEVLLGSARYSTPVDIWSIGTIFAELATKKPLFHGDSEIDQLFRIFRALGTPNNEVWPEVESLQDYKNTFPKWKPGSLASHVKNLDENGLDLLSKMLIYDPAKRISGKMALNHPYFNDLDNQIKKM
CDK1/Cyclin B1, sequence (P14635 whole entry partner): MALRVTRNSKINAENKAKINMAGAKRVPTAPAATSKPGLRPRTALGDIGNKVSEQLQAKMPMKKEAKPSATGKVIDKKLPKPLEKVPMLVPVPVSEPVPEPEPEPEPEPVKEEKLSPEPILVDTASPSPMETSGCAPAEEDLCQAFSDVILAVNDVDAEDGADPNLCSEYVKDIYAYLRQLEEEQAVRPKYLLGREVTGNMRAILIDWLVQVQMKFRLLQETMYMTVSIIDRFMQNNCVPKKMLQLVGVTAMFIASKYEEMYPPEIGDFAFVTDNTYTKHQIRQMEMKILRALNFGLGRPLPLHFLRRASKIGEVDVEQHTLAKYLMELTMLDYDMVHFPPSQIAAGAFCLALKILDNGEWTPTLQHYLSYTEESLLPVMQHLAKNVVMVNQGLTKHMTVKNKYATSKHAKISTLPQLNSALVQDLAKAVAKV
CDK4/Cyclin D1, sequence (P11802 whole entry): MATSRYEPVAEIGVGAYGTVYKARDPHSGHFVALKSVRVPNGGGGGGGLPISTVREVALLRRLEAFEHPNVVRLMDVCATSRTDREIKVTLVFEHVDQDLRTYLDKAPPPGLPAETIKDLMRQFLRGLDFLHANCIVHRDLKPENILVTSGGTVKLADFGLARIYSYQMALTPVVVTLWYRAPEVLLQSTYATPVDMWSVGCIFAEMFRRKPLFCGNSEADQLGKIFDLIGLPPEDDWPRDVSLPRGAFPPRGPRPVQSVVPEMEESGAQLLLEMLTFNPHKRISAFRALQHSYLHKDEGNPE
CDK4/Cyclin D1, sequence (P24385 whole entry partner): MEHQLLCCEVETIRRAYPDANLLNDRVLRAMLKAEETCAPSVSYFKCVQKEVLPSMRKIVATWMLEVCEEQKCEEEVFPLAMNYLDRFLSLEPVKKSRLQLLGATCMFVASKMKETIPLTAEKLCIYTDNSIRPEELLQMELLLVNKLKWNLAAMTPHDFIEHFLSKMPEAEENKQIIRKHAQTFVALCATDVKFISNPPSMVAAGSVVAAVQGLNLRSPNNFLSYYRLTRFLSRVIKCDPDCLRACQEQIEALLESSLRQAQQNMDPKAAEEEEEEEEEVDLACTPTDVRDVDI

Take `O=S(=O)(CC1CCC1)N1CCC(Nc2ncc3cc(C(F)F)nc(N4CC5(CCNC5)C4)c3n2)CC1` [Compound 55, N-(1-((cyclobutylmethyl)sulfonyl)piperidin-4-yl)-6-(difluoromethyl)-8-(2,6-diazaspiro[3.4]octan-2-yl)pyrido[3,4-d]pyrimidin-2-amine]: the IC50 was under 200 nM on CDK2/Cyclin E1; 500 to 2000 nM in the assay on OVCAR-3 cells; under 200 nM at CDK1/Cyclin B1; under 200 nM on CDK6/Cyclin D3; 200 to 500 nM in the assay on MCF-7 cells; under 200 nM on CDK4/Cyclin D1.
On to `Cc1cc2cnc(NC3CCN(S(=O)(=O)C4CC4)CC3)nc2c(N2CC(O)(C3CC3)C2)n1` [Compound 56, 3-cyclopropyl-1-(2-((1-(cyclopropylsulfonyl)piperidin-4-yl)amino)-6-methylpyrido[3,4-d]pyrimidin-8-yl)azetidin-3-ol], for which the IC50 was under 200 nM on CDK2/Cyclin E1; 500 to 2000 nM with OVCAR-3 cells; under 200 nM at CDK1/Cyclin B1; under 200 nM on CDK6/Cyclin D3; 500 to 2000 nM in the assay with MCF-7 cells; under 200 nM on CDK4/Cyclin D1.
Consider `Cc1cc2cnc(NC3CCN(S(=O)(=O)C4CC4)CC3)nc2c(N2CC(OC3CC3)C2)n1` [Compound 57, 8-(3-cyclopropoxyazetidin-1-yl)-N-(1-(cyclopropylsulfonyl)piperidin-4-yl)-6-methylpyrido[3,4-d]pyrimidin-2-amine], for which the IC50 on CDK2/Cyclin E1 was under 200 nM; in the assay on OVCAR-3 cells it was over 2000 nM; on CDK1/Cyclin B1 it was 200 to 500 nM; at CDK6/Cyclin D3 it was under 200 nM; with MCF-7 cells it was over 2000 nM; on CDK4/Cyclin D1, under 200 nM.
`Cc1cc2cnc(NC3CCN(S(=O)(=O)C4CC4)CC3)nc2c(N2CCC(OC(F)F)C2)n1` (stereo not drawn) [Compound 58, N-(1-(cyclopropylsulfonyl)piperidin-4-yl)-8-(3-(difluoromethoxy)pyrrolidin-1-yl)-6-methylpyrido[3,4-d]pyrimidin-2-amine]: the IC50 on CDK2/Cyclin E1 is under 200 nM; in the assay with OVCAR-3 cells, 500 to 2000 nM; on CDK1/Cyclin B1, under 200 nM; at CDK6/Cyclin D3 it was under 200 nM; in the assay on MCF-7 cells, 500 to 2000 nM; on CDK4/Cyclin D1, under 200 nM.
Take `Cc1cc2cnc(NC3CCN(S(=O)(=O)C4(C)CC4)CC3)nc2c(N2CCC3(CN(C)C3)C2)n1` [Compound 59, 6-methyl-8-(2-methyl-2,6-diazaspiro[3.4]octan-6-yl)-N-(1-((1-methylcyclopropyl)sulfonyl)piperidin-4-yl)pyrido[3,4-d]pyrimidin-2-amine]: the IC50 on CDK2/Cyclin E1 was under 200 nM; in the assay on OVCAR-3 cells, 500 to 2000 nM; on CDK1/Cyclin B1, 500 to 2000 nM; on CDK6/Cyclin D3, under 200 nM; in the assay on MCF-7 cells, 500 to 2000 nM; at CDK4/Cyclin D1, under 200 nM.
As to `Cc1cc2cnc(NC3CCN(S(=O)(=O)C4CC4)CC3)nc2c(N2CC3(CCNCC3(F)F)C2)n1` [Compound 61, N-(1-(cyclopropylsulfonyl)piperidin-4-yl)-8-(5,5-difluoro-2,7-diazaspiro[3.5]nonan-2-yl)-6-methylpyrido[3,4-d]pyrimidin-2-amine], the IC50 at CDK2/Cyclin E1 was under 200 nM; with OVCAR-3 cells it was 500 to 2000 nM; on CDK1/Cyclin B1, under 200 nM; on CDK6/Cyclin D3, under 200 nM; in the assay on MCF-7 cells, 500 to 2000 nM; at CDK4/Cyclin D1 it was under 200 nM.
On to `Cc1cc2cnc(NC3CCN(S(=O)(=O)C4(C)CC4)CC3)nc2c(C2CC(C)(O)C2)n1` (stereo not drawn) [Compound 63, 1-methyl-3-(6-methyl-2-((1-((1-methylcyclopropyl)sulfonyl)piperidin-4-yl)amino)pyrido[3,4-d]pyrimidin-8-yl)cyclobutan-1-ol], for which the IC50 on CDK2/Cyclin E1 is 200 to 500 nM; in the assay with OVCAR-3 cells, over 2000 nM; on CDK1/Cyclin B1, over 2000 nM; on CDK6/Cyclin D3, over 2000 nM; in the assay on MCF-7 cells, over 2000 nM; on CDK4/Cyclin D1 it was 500 to 2000 nM.
Consider `COCCN1CC2(C1)CN(c1nc(C3CC3)cc3cnc(NC4CCN(S(=O)(=O)CC5CCC5)CC4)nc13)C2` [Compound 64, N-(1-((cyclobutylmethyl)sulfonyl)piperidin-4-yl)-6-cyclopropyl-8-(6-(2-methoxyethyl)-2,6-diazaspiro[3.3]heptan-2-yl)pyrido[3,4-d]pyrimidin-2-amine], for which the IC50 at CDK2/Cyclin E1 was under 200 nM; in the assay on OVCAR-3 cells, over 2000 nM; at CDK1/Cyclin B1, 500 to 2000 nM; at CDK6/Cyclin D3, 200 to 500 nM; in the assay with MCF-7 cells, over 2000 nM; at CDK4/Cyclin D1 it was under 200 nM.
On to `CS(=O)(=O)N1CCC(Nc2ncc3cc(C(F)F)nc(N4CC5(CNCCC5(F)F)C4)c3n2)CC1` [Compound 65, 8-(9,9-difluoro-2,6-diazaspiro[3.5]nonan-2-yl)-6-(difluoromethyl)-N-(1-(methylsulfonyl)piperidin-4-yl)pyrido[3,4-d]pyrimidin-2-amine], for which the IC50 on CDK2/Cyclin E1 was under 200 nM; with OVCAR-3 cells, 200 to 500 nM; at CDK1/Cyclin B1, under 200 nM; at CDK6/Cyclin D3 it was under 200 nM; with MCF-7 cells it was 200 to 500 nM; at CDK4/Cyclin D1, under 200 nM.
Regarding `Cc1cc2cnc(NC3CCN(S(=O)(=O)C4CC4)CC3)nc2c(N2CC3(CC(O)C3)C2)n1` [Compound 66, 2-(2-((1-(cyclopropylsulfonyl)piperidin-4-yl)amino)-6-methylpyrido[3,4-d]pyrimidin-8-yl)-2-azaspiro[3.3]heptan-6-ol], the IC50 is under 200 nM at CDK2/Cyclin E1; 500 to 2000 nM in the assay on OVCAR-3 cells; 500 to 2000 nM on CDK1/Cyclin B1; under 200 nM at CDK6/Cyclin D3; 500 to 2000 nM in the assay on MCF-7 cells; under 200 nM at CDK4/Cyclin D1.
In the case of `Cc1cc2cnc(NC3CCN(S(=O)(=O)CCC4(C)CC4)CC3)nc2c(N2CC(F)(F)C3(CNC3)C2)n1` [Compound 67, 8-(8,8-difluoro-2,6-diazaspiro[3.4]octan-6-yl)-6-methyl-N-(1-((2-(1-methylcyclopropyl)ethyl)sulfonyl)piperidin-4-yl)pyrido[3,4-d]pyrimidin-2-amine], the IC50 at CDK2/Cyclin E1 is under 200 nM; in the assay with OVCAR-3 cells, over 2000 nM; at CDK1/Cyclin B1 it was 200 to 500 nM; on CDK6/Cyclin D3, 200 to 500 nM; in the assay on MCF-7 cells it was over 2000 nM; on CDK4/Cyclin D1, under 200 nM.
For the molecule `CS(=O)(=O)N1CCC(Nc2ncc3cc(C4CC4)nc(C4CC5(CNCCO5)C4)c3n2)CC1` (stereo not drawn) [Compound 70, 6-cyclopropyl-N-(1-(methylsulfonyl)piperidin-4-yl)-8-(5-oxa-8-azaspiro[3.5]nonan-2-yl)pyrido[3,4-d]pyrimidin-2-amine], the IC50 at CDK2/Cyclin E1 was under 200 nM; with OVCAR-3 cells, 500 to 2000 nM; on CDK1/Cyclin B1 it was under 200 nM; on CDK6/Cyclin D3, under 200 nM; in the assay on MCF-7 cells, 500 to 2000 nM; at CDK4/Cyclin D1 it was under 200 nM.
Turning to `COC1CC2(C1)CN(c1nc(C)cc3cnc(NC4CCN(S(=O)(=O)C5CC5)CC4)nc13)C2` [Compound 71, N-(1-(cyclopropylsulfonyl)piperidin-4-yl)-8-(6-methoxy-2-azaspiro[3.3]heptan-2-yl)-6-methylpyrido[3,4-d]pyrimidin-2-amine], the IC50 at CDK2/Cyclin E1 is under 200 nM; in the assay on OVCAR-3 cells, over 2000 nM; at CDK1/Cyclin B1 it was 200 to 500 nM; at CDK6/Cyclin D3 it was under 200 nM; with MCF-7 cells it was over 2000 nM; on CDK4/Cyclin D1, under 200 nM.
